Laboratory results from patent publication US11490618B2, “Preservation compositions” (Conopco, Inc., priority 2018, dated 2022).

Assays:
[1] = test system: Pool 2 Gram negative fermenting bacteria: Enterobacter gergoviae & Klebsiella species; assay: Liquid broth checkerboard assay (MIC, ΣFIC synergy), microorganism Pool 2; format: cell-based; conditions: tryptic soy broth, 30° C., 24 hours, ΣFIC<1 synergistic
Source text: (§1) The differing behaviours of inhibitory antimicrobials in isolation and mixtures have been widely explored using the concept of the Fractional Concentration and Fractional Inhibitory Concentration (FIC). See for instance J R W Lambert and R Lambert, J. Appl. Microbiol 95, 734 (2003); T. Jadavji, C G Prober and R Cheung, Antimicrobial Agents and Chemotherapy 26, 91 (1984), and WO 2004/006876. These parameters can be defined as follows: FC(component a)=Concentration of component a tested in the mixture/MIC(component a tested as a single active) FIC(component a)=MIC(component a tested in the mixture)/MIC(component a tested as a single active)
(§2) These relationships can be expressed mathematically by summing the fractional MIC values for all the components present in the mixture to give the “fractional inhibitory index”: ΣFIC=FIC(component 1)+FIC(component 2)
(§3) ΣFIC≥1 corresponds to additive or antagonistic activity
(§4) ΣFIC<1 corresponds to synergistic activity
(§5) Liquid broth assays (MIC and checkerboard) were conducted to identify the minimum concentration(s) of individual and binary combinations of preservation chemicals. A modified methodology to ISO 20776-1:2006 was utilised for the screening as follows. Stock solutions of preservation chemicals and tryptic soy broth were inoculated with 1-5×10^6 microorganisms and incubated at 30° C. for 24 hours, after which optical densities at OD600 nm were measured. […] Preservation chemicals were screened at a concentration range of 0.0156-2%.

[2] = test system: Pool 1 Gram negative non-fermenting bacteria: Pseudomonas aeruginosa, Pseudomonas putida & Burkholderia cepacia; assay: Liquid broth checkerboard assay (MIC, ΣFIC synergy), microorganism Pool 1; format: cell-based; conditions: tryptic soy broth, 30° C., 24 hours, ΣFIC<1 synergistic
Source text: as §1, §2, §3, §4, §5

[3] = binary combination with Citric Acid
[4] = binary combination with Itaconic acid

SMILES | ΣFIC synergy score [1, 3] | ΣFIC synergy score [1, 4] | ΣFIC synergy score [2, 3] | ΣFIC synergy score [2, 4]
CC(C)=CCC/C(C)=C/CO [Geraniol] | 1.06 | 0.5 | 0.75 | 0.31
C=C(C)[C@@H]1CC=C(CO)CC1 [Perillyl alcohol] | 0.5 | 0.38 | 0.38 | 0.38
